# According to ChEMBL document CHEMBL5505983, “Design, synthesis, and molecular modeling studies of novel 2-quinolone-1,2,3-triazole-α-aminophosphonates hybrids as dual antiviral and antibacterial agents” (Eur J Med Chem, 2024):
# What was measured:
# Yellow fever virus = test: Antiviral activity against Yellow fever virus infected in human Huh-7 cells assessed as inhibition of cytopathic effect by microscopy based analysis; type: functional, organism-based
# [1] = Cytotoxicity against human Huh-7 cells; type: toxicity, cell-based
# Zika virus = test: Antiviral activity against Zika virus infected in african green monkey Vero E6 cells assessed as inhibition of cytopathic effect by microscopy based analysis; type: functional, organism-based; settings: Vero C1008
# [2] = Cytotoxicity against African green monkey Vero E6 cells; type: toxicity, cell-based, Vero C1008; settings: chlorocebus sabaeus
# Chikungunya virus = test: Antiviral activity against CHIKV infected in African green monkey Vero A cells assessed as inhibition of cytopathic effect by microscopy based analysis; type: functional, organism-based
# [3] = Cytotoxicity against African green monkey Vero A cells; type: toxicity, cell-based; settings: chlorocebus sabaeus
# [4] = Selectivity index, ratio of CC50 for African green monkey Vero A cells to IC50 for CHIKV infected in African green monkey Vero A cells; type: toxicity; settings: read-out: Ratio CC50/IC50
# Enterovirus A71 = test: Antiviral activity against human EV71 infected in human RD cells assessed as inhibition of cytopathic effect by microscopy based analysis; type: functional, organism-based; settings: Enterovirus A
# [5] = Cytotoxicity against human RD cells; type: toxicity, cell-based
# Human rhinovirus sp. [6] = test: Antiviral activity against Human rhinovirus B14 infected in human HeLa-RH cells assessed as inhibition of cytopathic effect by microscopy based analysis; type: functional, organism-based
# [7] = Cytotoxicity against human HeLa-RH cells; type: toxicity, cell-based
# [8] = Selectivity index, ratio of CC50 for human HeLa-RH cells to IC50 for Human rhinovirus B14 infected in human HeLa-RH cells; type: toxicity, cell-based; settings: read-out: Ratio CC50/IC50
# Human rhinovirus sp. [9] = test: Antiviral activity against Human rhinovirus A2 infected in human HeLa-RH cells assessed as inhibition of cytopathic effect by microscopy based analysis; type: functional, organism-based
# Escherichia coli [10] = test: Antibacterial activity against Escherichia coli CIP 53154 assessed as reduction in bacterial growth by micro-broth dilution method; type: functional
# Escherichia coli [11] = test: Bactericidal activity against Escherichia coli CIP 53154; type: functional
# Pseudomonas aeruginosa [12] = test: Antibacterial activity against Pseudomonas aeruginosa CIP A22 assessed as reduction in bacterial growth by micro-broth dilution method; type: functional
# Pseudomonas aeruginosa [13] = test: Bactericidal activity against Pseudomonas aeruginosa CIP A22; type: functional
# Staphylococcus aureus [14] = test: Antibacterial activity against Staphylococcus aureus CIP 54127 assessed as reduction in bacterial growth by micro-broth dilution method; type: functional
# Staphylococcus aureus [15] = test: Bactericidal activity against Staphylococcus aureus CIP 54127; type: functional
# Enterococcus faecalis [16] = test: Antibacterial activity against Enterococcus faecalis assessed as reduction in bacterial growth by micro-broth dilution method; type: functional
# Enterococcus faecalis [17] = test: Bactericidal activity against Enterococcus faecalis; type: functional
# Escherichia coli [18] = test: Ratio of MBC to MIC for Escherichia coli CIP 53154; type: functional
# Pseudomonas aeruginosa [19] = test: Ratio of MBC to MIC for Pseudomonas aeruginosa CIP A22; type: functional
# Staphylococcus aureus [20] = test: Ratio of MBC to MIC for Staphylococcus aureus CIP 54127; type: functional
# Enterococcus faecalis [21] = test: Ratio of MBC to MIC for Enterococcus faecalis; type: functional
# [22] = Selectivity index, ratio of CC50 for human Huh-7 cells to IC50 for Yellow fever virus infected in human Huh-7 cells; type: toxicity, cell-based; settings: read-out: Ratio CC50/IC50
# [23] = Selectivity index, ratio of CC50 for human RD cells to IC50 for human EV71 infected in human RD cells; type: toxicity, cell-based; settings: read-out: Ratio CC50/IC50
# [24] = Selectivity index, ratio of CC50 for African green monkey Vero E6 cells to IC50 for Zika virus infected in african green monkey Vero E6 cells; type: toxicity; settings: read-out: Ratio CC50/IC50
Compound,IC50 (Yellow fever virus),CC50 [1],IC50 (Zika virus),CC50 [2],IC50 (Chikungunya virus),CC50 [3],IC50 (Enterovirus A71),CC50 [5],IC50 (Human rhinovirus sp. [6]),CC50 [7],IC50 (Human rhinovirus sp. [9]),MIC (Escherichia coli [10]),MBC (Escherichia coli [11]),MIC (Pseudomonas aeruginosa [12]),MBC (Pseudomonas aeruginosa [13]),MIC (Staphylococcus aureus [14]),MBC (Staphylococcus aureus [15]),MIC (Enterococcus faecalis [16]),MBC (Enterococcus faecalis [17]),Ratio (Escherichia coli [18]),also measured
CCOP(=O)(OCC)C(Nc1ccc(I)cc1)c1cc(Cn2cc(Cn3c(=O)cc(C)c4cc(F)ccc43)nn2)ccc1O (centres undefined),> 33.3 µM,12.1 µM,> 100 µM,> 100 µM,33 µM,> 100 µM,> 100 µM,> 100 µM,10.9 µM,> 33.3 µM,> 33.3 µM,860 µM,1710 µM,1710 µM,1710 µM,110 µM,220 µM,50 µM,50 µM,1.99,selectivity ratio [4]: > 3.03; selectivity ratio [8]: > 3.06; Ratio (Pseudomonas aeruginosa [19]): 1; Ratio (Staphylococcus aureus [20]): 2; Ratio (Enterococcus faecalis [21]): 1
Cc1cc(=O)n(Cc2cn(Cc3ccc(O)c(C=O)c3)nn2)c2ccccc12,> 100 µM,37.5 µM,> 100 µM,57.5 µM,95.7 µM,> 100 µM,> 33.3 µM,27.1 µM,> 100 µM,11.4 µM,> 1.23 µM,430 µM,830 µM,26700 µM,26700 µM,210 µM,210 µM,110 µM,110 µM,1.93,selectivity ratio [4]: > 1.05; Ratio (Pseudomonas aeruginosa [19]): 2; Ratio (Staphylococcus aureus [20]): 1; Ratio (Enterococcus faecalis [21]): 1
CCOP(=O)(OCC)C(Nc1ccccc1)c1cc(Cn2cc(Cn3c(=O)cc(C)c4cc(Br)ccc43)nn2)ccc1O (centres undefined),> 100 µM,52 µM,> 100 µM,> 100 µM,40 µM,> 100 µM,> 100 µM,> 100 µM,41.1 µM,> 100 µM,> 1.23 µM,950 µM,1880 µM,3750 µM,3750 µM,240 µM,240 µM,60 µM,120 µM,1.98,selectivity ratio [4]: > 2.5; selectivity ratio [8]: > 2.43; Ratio (Pseudomonas aeruginosa [19]): 1.99; Ratio (Staphylococcus aureus [20]): 1; Ratio (Enterococcus faecalis [21]): 2
CCOP(=O)(OCC)C(Nc1ccccc1Br)c1cc(Cn2cc(Cn3c(=O)cc(C)c4ccccc43)nn2)ccc1O (centres undefined),9.94 µM,30.1 µM,> 100 µM,> 100 µM,9.4 µM,23.4 µM,> 100 µM,70.2 µM,> 100 µM,45.7 µM,> 1.23 µM,470 µM,470 µM,3750 µM,3750 µM,120 µM,120 µM,60 µM,60 µM,1,selectivity ratio [22]: 3.03; selectivity ratio [4]: 2.49; Ratio (Pseudomonas aeruginosa [19]): 1.99; Ratio (Staphylococcus aureus [20]): 1; Ratio (Enterococcus faecalis [21]): 1
CCOP(=O)(OCC)C(Nc1ccccc1Cl)c1cc(Cn2cc(Cn3c(=O)cc(C)c4cc(F)ccc43)nn2)ccc1O (centres undefined),10.3 µM,31 µM,> 100 µM,28.1 µM,> 100 µM,7 µM,> 100 µM,> 100 µM,> 100 µM,12.5 µM,> 0.41 µM,2020 µM,4030 µM,4030 µM,4030 µM,130 µM,260 µM,30 µM,30 µM,2,selectivity ratio [22]: 3.01; Ratio (Pseudomonas aeruginosa [19]): 1; Ratio (Staphylococcus aureus [20]): 2; Ratio (Enterococcus faecalis [21]): 1
CCOC(=O)/C=C/[C@H](C[C@@H]1CCNC1=O)NC(=O)[C@@H](CC(=O)[C@@H](NC(=O)c1cc(C)on1)C(C)C)Cc1ccc(F)cc1 [RUPINTRIVIR],,,,,,,1.87 µM,> 100 µM,,,,,,,,,,,,,selectivity ratio [23]: > 53.5
CCOP(=O)(OCC)C(Nc1ccccc1Br)c1cc(Cn2cc(Cn3c(=O)cc(C)c4cc(Br)ccc43)nn2)ccc1O (centres undefined),10.4 µM,27.9 µM,> 100 µM,> 100 µM,57.3 µM,10.1 µM,> 100 µM,> 100 µM,> 100 µM,18.4 µM,> 0.41 µM,420 µM,850 µM,420 µM,420 µM,210 µM,420 µM,50 µM,50 µM,2.02,selectivity ratio [22]: 2.68; selectivity ratio [4]: 0.18; Ratio (Pseudomonas aeruginosa [19]): 1; Ratio (Staphylococcus aureus [20]): 2; Ratio (Enterococcus faecalis [21]): 1
C[C@@]1(O)[C@H](O)[C@@H](CO)O[C@H]1n1ccc2c(N)ncnc21 [BETA-2'-C-METHYL-7-DEAZA-ADENOSINE],16.3 µM,50 µM,20 µM,> 100 µM,,,,,,,,,,,,,,,,,selectivity ratio [22]: 3.07; selectivity ratio [24]: > 5
CCOP(=O)(OCC)C(Nc1ccccc1OC)c1cc(Cn2cc(Cn3c(=O)cc(C)c4cc(Br)ccc43)nn2)ccc1O (centres undefined),> 100 µM,51.2 µM,> 100 µM,> 100 µM,81.6 µM,> 100 µM,> 100 µM,> 33.3 µM,> 100 µM,> 33.3 µM,> 0.41 µM,900 µM,1790 µM,3590 µM,3590 µM,230 µM,450 µM,110 µM,110 µM,1.99,selectivity ratio [4]: > 1.23; Ratio (Pseudomonas aeruginosa [19]): 2.01; Ratio (Staphylococcus aureus [20]): 1.96; Ratio (Enterococcus faecalis [21]): 1
Cc1cc(=O)n(Cc2cn(Cc3ccc(O)c(C=O)c3)nn2)c2ccc(F)cc12,> 100 µM,27.8 µM,> 100 µM,55 µM,> 100 µM,> 100 µM,29.9 µM,43 µM,> 100 µM,14.5 µM,> 1.23 µM,6370 µM,6370 µM,3190 µM,3190 µM,3190 µM,3190 µM,200 µM,400 µM,1,selectivity ratio [23]: 1.44; Ratio (Pseudomonas aeruginosa [19]): 2.01; Ratio (Staphylococcus aureus [20]): 1; Ratio (Enterococcus faecalis [21]): 2
CCOP(=O)(OCC)C(Nc1ccc(F)cc1)c1cc(Cn2cc(Cn3c(=O)cc(C)c4cc(Br)ccc43)nn2)ccc1O (centres undefined),> 100 µM,22.2 µM,> 100 µM,> 33.3 µM,6.8 µM,25.8 µM,> 100 µM,> 100 µM,> 33.3 µM,20.9 µM,> 0.41 µM,920 µM,920 µM,1830 µM,1830 µM,450 µM,450 µM,60 µM,60 µM,1,selectivity ratio [4]: 3.79; Ratio (Pseudomonas aeruginosa [19]): 1; Ratio (Staphylococcus aureus [20]): 1; Ratio (Enterococcus faecalis [21]): 1
CCOP(=O)(OCC)C(Nc1ccc(C)cc1)c1cc(Cn2cc(Cn3c(=O)cc(C)c4cc(Br)ccc43)nn2)ccc1O (centres undefined),> 100 µM,20 µM,> 100 µM,> 33.3 µM,56.1 µM,> 100 µM,> 100 µM,> 100 µM,10.7 µM,29.1 µM,> 0.41 µM,460 µM,930 µM,1840 µM,1840 µM,460 µM,460 µM,60 µM,60 µM,2.02,selectivity ratio [4]: > 1.78; selectivity ratio [8]: 2.73; Ratio (Pseudomonas aeruginosa [19]): 4; Ratio (Staphylococcus aureus [20]): 1; Ratio (Enterococcus faecalis [21]): 1
Cc1cc(=O)n(Cc2cn(Cc3ccc(O)c(C=O)c3)nn2)c2ccc(Br)cc12,> 100 µM,29.6 µM,> 100 µM,52.7 µM,98.5 µM,> 100 µM,33.3 µM,44.1 µM,> 100 µM,8.61 µM,> 1.23 µM,5520 µM,11000 µM,2760 µM,2760 µM,11000 µM,11000 µM,340 µM,340 µM,2,selectivity ratio [4]: > 1.02; selectivity ratio [23]: 1.33; Ratio (Pseudomonas aeruginosa [19]): 1; Ratio (Staphylococcus aureus [20]): 1; Ratio (Enterococcus faecalis [21]): 1
